# According to patent US20220160703A1, “TUMOR-SELECTIVE COMBINATION THERAPY” (The Board of Regents of The University of Texas System, priority 2019, published 2022):
# Legend:
# [1] = test system: MC38 cells; assay: 7-AAD and Annexin V cell death, flow cytometry; assay type: cell-based, murine; details: lethal dose of β-lap (4 μM)
# Procedure: (FIG. 1A) NQO1 positive tumor cell lines MC38, TC-1 and Ag104Ld and NQO1 negative cell lines Panc02 and B16 grown in 48-well plates were treated with β-lap (0-8 μM) for a 3 hr followed by washing and replacing medium. Cell viability was determined by Sulforhodamine B (SRB) Assay 4 days later. […] (FIG. 1C) MC38 cells with CRISPR-based NQO1 Knockout (MC38 NQO1KO #5) planted in 96-well plates were exposed to β-lap for 3 hr and cell survival was assessed 48 hr later. […] (FIG. 1E) MC38 cells were exposed to a lethal dose of β-lap (4 μM) for indicated times, then stained with 7-AAD and Annexin V followed by flow cytometry analysis. […] (FIG. 1H) MC38 and B16 NQO1 #1 cells were exposed to β-lap for a 3 hr. Catalase (1000 U/ml) was added and cell survival was assessed 48 hr later. (FIG. 1I) C57BL/6 mice (n=5/group) were transplanted with MC38 cells and treated with β-lap (0.03 mg, 0.1 mg or 0.3 mg, intratumorally; or 25 mg/kg, i.v.) every other day for four times. […] Tumor growth was monitored twice a week.
# (FIG. 21A) Viability of murine cell lines following IB-DNQ treatment for 4 h. […] (FIGS. 21D-E) DNA double strand break was assessed via comet assay (FIG. 21D) and γH2AX foci/nuclei immunofluorescence (FIG. 21E). (FIG. 21F) MC38 cell death after a 4 h exposure to IB-DNQ was determined by 7AAD and Annexin V staining using flow cytometry analysis.
# [2] = test system: CD8 T cells; assay: Direct effect on CD8 T cells (apoptosis, proliferation, IFNγ); assay type: cell-based, mice; details: tumor lethal dose of β-lap
# Procedure: FIGS. 23A-D. IB-DNQ-mediated antitumor effect influences tumor microenvironment. 6×10^5 MC38 cells were subcutaneously transplanted into C57BL/6 mice (n=3/group). Tumor-bearing mice were treated with IB-DNQ (12 mg/kg, i.t.) or vehicle every other day for four times after tumor volumes reached to 50 mm^3. Tumors were collected 24 h later after the last IB-DNQ injection. (FIG. 23A) Flow cytometry analysis of tumor-infiltrating immune cells from vehicle and IB-DNQ treated tumors. (FIG. 23B) Quantification of immune populations from vehicle and IB-DNQ treated tumors. (FIG. 23C) T cell proliferation in the presence/absence of IB-DNQ. CFSE labeled splenocytes were treated with lethal dose IB-DNQ for 4 h followed by washing and stimulation with anti-CD3 (1 μg/ml) and anti-CD28 (2 μg/ml) for 48 h, proliferative CD8 T cells were then analyzed by flow cytometry assay. (FIG. 23D) Effect of IB-DNQ on T cells. […] 24 h later, cell death was analyzed by flow cytometry. […]
# I3-Lap-induced-antitumor effect depends on dendritic cell-mediated T cell cross-priming. […] To rule out of direct effect of β-lap on CD8 T cells, the inventors evaluated the expression of NQO1 on CD8 T cells and the effect of β-lap on CD8 T cell survival, proliferation and function. […] IFNγ secretion was measured to evaluate the capability of DCs to prime the antigen specific T cells.
smiles,measurement,setting,value
"CC1(C)CCC2=C(O1)c1ccccc1C(=O)C2=O [β-lap, β-lapachone]",mode of cell death,[1],"rapid cell swelling, membrane rupture and Annexin V+/7AAD+ cell death without caspase activation"
same,"CD8 T cell apoptosis, anti-CD3/CD28 stimulated proliferation and IFNγ production",[2],no effect
